Activity calls are given as the source filed them. The rule behind the calls is not given here.
How the values were obtained:
Saccharomyces cerevisiae [1] = assay: Antimicrobial activity against Saccharomyces cerevisiae; format: functional, organism-based
Bacillus subtilis [2] = assay: Antimicrobial activity against Bacillus subtilis DSM 2109; format: functional, organism-based
Escherichia coli = assay: Antimicrobial activity against Escherichia coli DSM 10290; format: functional, organism-based
Saccharomyces cerevisiae [3] = assay: Antimicrobial activity against Saccharomyces cerevisiae at 10 ug after 24 hrs by agar diffusion assay; format: functional; details: read-out: IZ
Bacillus subtilis [4] = assay: Antimicrobial activity against Bacillus subtilis DSM 2109 at 10 ug after 24 hrs by agar diffusion assay; format: functional; details: DSM 2109, 24 h, read-out: IZ

Compound	Activity (Saccharomyces cerevisiae [1])	Activity (Bacillus subtilis [2])	Activity (Escherichia coli)	zone of inhibition at 10 µg/disc (Saccharomyces cerevisiae [3])	zone of inhibition at 10 µg/disc (Bacillus subtilis [4])
CC(=O)N[C@H]1[C@H](O[C@@H]2CO[C@@H](O[C@H]3CC[C@]4(C)C5=C(CC[C@H]4C3(C)C)[C@@H]3CC[C@H]([C@H](C)CC(=O)C=C(C)C)[C@@]3(C)CC5)[C@H](O[C@@H]3O[C@H](CO[C@@H]4O[C@H](CO)[C@@H](O)[C@H](O)[C@H]4O[C@@H]4O[C@H](CO)[C@@H](O)[C@H](O)[C@H]4O)[C@@H](O)[C@H](O)[C@H]3NC(C)=O)[C@H]2O)O[C@H](CO)[C@H](O)[C@@H]1O [SARASINOSIDE A1]	Active	inactive	inactive	10 mm	
CC(=O)N[C@H]1[C@H](O[C@@H]2CO[C@@H](O[C@H]3CC[C@]4(C)C5=C(CC[C@H]4C3(C)C)[C@@H]3CC[C@H]([C@H](C)CC(=O)CC(C)(C)O)[C@@]3(C)CC5)[C@H](O[C@@H]3O[C@H](CO[C@@H]4O[C@H](CO)[C@@H](O)[C@H](O)[C@H]4O[C@@H]4O[C@H](CO)[C@@H](O)[C@H](O)[C@H]4O)[C@@H](O)[C@H](O)[C@H]3NC(C)=O)[C@H]2O)O[C@H](CO)[C@H](O)[C@@H]1O [SARASINOSIDE J]	Active			13 mm	9 mm
